Reference: patent US20250162989A1, “USP30 INHIBITORS AND USES THEREOF” (Vincere Biosciences, Inc., priority 2021, published 2025)

biological target: recombinant USP30 (amino acids 57-517 of the human sequence) (Homo sapiens (Human), UniProt Q70CQ3); experiment: In vitro USP30 biochemical assay (Ubiquitin-Rhodamine substrate); settings: 1.5 nM recombinant USP30, 25 nM Ubiquitin-Rhodamine, fluorescence
Procedure: In vitro biochemical assay to establish the potency of compounds for USP30 inhibition: a 384-well plate assay using a fluorophore tagged substrate of USP30 was used for in vitro screening of compounds. Each compound was tested at
10 different concentrations (0.5 to 10,000 nM) in duplicate wells. […] Data were analyzed using Graph Pad Prism software with a four-parameter (floating slope) fit to log concentration data to determine IC50s.

Sequence of recombinant USP30 (amino acids 57-517 of the human sequence) (Q70CQ3 57-517): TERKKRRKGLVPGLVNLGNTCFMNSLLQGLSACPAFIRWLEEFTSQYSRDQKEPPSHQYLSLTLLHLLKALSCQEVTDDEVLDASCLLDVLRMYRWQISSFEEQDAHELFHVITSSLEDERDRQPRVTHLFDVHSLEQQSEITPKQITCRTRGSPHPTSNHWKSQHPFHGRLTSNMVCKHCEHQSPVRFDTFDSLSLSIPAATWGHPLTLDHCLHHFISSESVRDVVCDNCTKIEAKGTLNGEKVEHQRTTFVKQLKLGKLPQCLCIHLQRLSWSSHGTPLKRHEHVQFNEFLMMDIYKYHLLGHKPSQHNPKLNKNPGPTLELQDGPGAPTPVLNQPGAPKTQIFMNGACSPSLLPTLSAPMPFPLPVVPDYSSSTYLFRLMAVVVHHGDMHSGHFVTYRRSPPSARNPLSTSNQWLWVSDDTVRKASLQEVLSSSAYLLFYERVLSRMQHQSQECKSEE

IC50 | SMILES
1 to 10 µM | CC(C)(C)NS(=O)(=O)c1ccc(-c2nc([C@H](Cc3ccccc3)NC(=O)c3ccc(F)cc3)n[nH]2)cc1 (stereo in doubt) [Compound I-55, N-(1-(5-(4-(N-(tert-butyl)sulfamoyl)phenyl)-1H-1,2,4-triazol-3-yl)-2-phenylethyl)-4-fluorobenzamide]
1 to 10 µM | CC(C)(C)NS(=O)(=O)c1ccc(NC(=O)[C@H](Cc2ccccc2)c2nnc(-c3ccc(F)cc3)o2)cc1 (stereo in doubt) [Compound I-56, N-(4-(N-(tert-butyl)sulfamoyl)phenyl)-2-(5-(4-fluorophenyl)-1,3,4-oxadiazol-2-yl)-3-phenylpropanamide]
0.05 to 1 µM | O=C(N[C@@H](CC1CCOCC1)C(=O)Nc1ccc(S(=O)(=O)NC2COC2)nc1)c1ccc(F)cc1 [Compound I-5]
0.05 to 1 µM | COCCC(C)(C)NS(=O)(=O)c1ccc(NC(=O)[C@H](CC2CCOCC2)NC(=O)c2ccc(F)cc2)cc1 [Compound I-7]
0.05 to 1 µM | CCNS(=O)(=O)c1cccc2c(NC(=O)[C@H](CC3CCOCC3)NC(=O)c3ccc(F)cc3)cccc12 [Compound I-9]
1 to 10 µM | O=C(N[C@@H](CC1CCOCC1)C(=O)Nc1cccc2c(S(=O)(=O)NC3COC3)cccc12)c1ccc(F)cc1 [Compound I-10]
0.05 to 1 µM | COc1cc(NC(=O)[C@H](CC(C)C)NC(=O)c2ccc(F)cc2)ccc1S(=O)(=O)NC(C)(C)C [Compound I-13]
0.05 to 1 µM | COc1cc(NC(=O)[C@H](CC(C)C)NC(=O)c2ccc(F)cc2)ccc1S(=O)(=O)NC(C)(C)CO [Compound I-14]
0.05 to 1 µM | COc1cc(NC(=O)[C@H](CC(C)C)NC(=O)c2ccc(F)cc2)cnc1S(=O)(=O)NC(C)(C)C [Compound I-15]
0.05 to 1 µM | CC(C)C[C@H](NC(=O)c1ccc(F)cc1)C(=O)Nc1ccc(S(=O)(=O)NC(C)(C)CO)nc1 [Compound I-17]
0.05 to 1 µM | COCCC(C)(C)NS(=O)(=O)c1ccc(NC(=O)[C@H](CC(C)C)NC(=O)c2ccc(F)cc2)cc1 [Compound I-18]
1 to 10 µM | COCCC(C)(C)NS(=O)(=O)c1ccc(NC(=O)[C@@H](CC(C)C)NC(=O)c2ccc(F)cc2)cc1 [Compound I-19]
0.05 to 1 µM | CC(C)C[C@H](NC(=O)c1ccc(F)cc1)C(=O)Nc1ccc(S(=O)(=O)NC2COC2)cc1 [Compound I-22]
0.05 to 1 µM | CC(C)CC[C@H](NC(=O)c1ccc(F)cc1)C(=O)Nc1ccc(S(=O)(=O)NC2COC2)cc1 [Compound I-24]
0.05 to 1 µM | CC(C)(C)C[C@H](NC(=O)c1ccc(F)cc1)C(=O)Nc1ccc(S(=O)(=O)NC(C)(C)C)cc1 [Compound I-25]
0.05 to 1 µM | COCC[C@H](NC(=O)c1ccc(F)cc1)C(=O)Nc1ccc(S(=O)(=O)NC(C)(C)CO)cc1 [Compound I-26]
1 to 10 µM | COCC[C@H](NC(=O)c1ccc(F)cc1)C(=O)Nc1ccc(S(=O)(=O)NC(C)(C)CN2CCOCC2)cc1 [Compound I-27]
1 to 10 µM | COCC[C@H](NC(=O)c1ccc(F)cc1)C(=O)Nc1ccc(S(=O)(=O)NC2COC2)cc1 [Compound I-28]
1 to 10 µM | CC(C)(CO)NS(=O)(=O)c1ccc(NC(=O)[C@H](CCO)NC(=O)c2ccc(F)cc2)cc1 [Compound I-29]
1 to 10 µM | CC(C)(CN1CCOCC1)NS(=O)(=O)c1ccc(NC(=O)[C@H](CCO)NC(=O)c2ccc(F)cc2)cc1 [Compound I-30]

IC50 | SMILES
1 to 10 µM | O=C(N[C@@H](CCO)C(=O)Nc1ccc(S(=O)(=O)NC2COC2)cc1)c1ccc(F)cc1 [Compound I-31]
1 to 10 µM | COC[C@H](NC(=O)c1ccc(F)cc1)C(=O)Nc1ccc(S(=O)(=O)NC(C)(C)CO)cc1 [Compound I-32]
1 to 10 µM | COC[C@H](NC(=O)c1ccc(F)cc1)C(=O)Nc1ccc(S(=O)(=O)NC(C)(C)CN2CCOCC2)cc1 [Compound I-33]
1 to 10 µM | COC[C@H](NC(=O)c1ccc(F)cc1)C(=O)Nc1ccc(S(=O)(=O)NC2COC2)cc1 [Compound I-34]
1 to 10 µM | CC(C)(CO)NS(=O)(=O)c1ccc(NC(=O)[C@H](CO)NC(=O)c2ccc(F)cc2)cc1 [Compound I-35]
0.05 to 1 µM | CC(C)(C)NS(=O)(=O)c1ccc(NC(=O)[C@H](CC2COC2)NC(=O)c2ccc(F)cc2)cc1 [Compound I-38, (S)—N-(1-((4-(N-(tert-butyl)sulfamoyl)phenyl)amino)-3-(oxetan-3-yl)-1-oxopropan-2-yl)-4-fluorobenzamide]
0.05 to 1 µM | CC(C)(C)NS(=O)(=O)c1ccc(NC(=O)[C@H](CC2CCNCC2)NC(=O)c2ccc(F)cc2)cc1 [Compound I-40, (S)—N-(1-((4-(N-(tert-butyl)sulfamoyl)phenyl)amino)-1-oxo-3-(piperidin-4-yl)propan-2-yl)-4-fluorobenzamide]
0.05 to 1 µM | CC(C)(C)NS(=O)(=O)c1ccc(NC(=O)[C@H](CC2CCN(C(=O)OCc3ccccc3)CC2)NC(=O)c2ccc(F)cc2)cc1 [Compound I-43, benzyl (S)-4-(3-((4-(N-(tert-butyl)sulfamoyl)phenyl)amino)-2-(4-fluorobenzamido)-3-oxopropyl)piperidine-1-carboxylate]
0.05 to 1 µM | CN1CCC(C[C@H](NC(=O)c2ccc(F)cc2)C(=O)Nc2ccc(S(=O)(=O)NC(C)(C)CO)cc2)CC1 [Compound I-44]
0.05 to 1 µM | CCN1CCC(C[C@H](NC(=O)c2ccc(F)cc2)C(=O)Nc2ccc(S(=O)(=O)NC(C)(C)CO)cc2)CC1 [Compound I-45]
0.05 to 1 µM | CC(C)(CO)NS(=O)(=O)c1ccc(NC(=O)[C@H](CC2CC2)NC(=O)c2ccc(F)cc2)cc1 [Compound I-46]
0.05 to 1 µM | CC(C)(CN1CCOCC1)NS(=O)(=O)c1ccc(NC(=O)[C@H](CC2CC2)NC(=O)c2ccc(F)cc2)cc1 [Compound I-47]
1 to 10 µM | O=C(N[C@@H](CC1CC1)C(=O)Nc1ccc(S(=O)(=O)NC2COC2)cc1)c1ccc(F)cc1 [Compound I-48]
0.05 to 1 µM | CC(C)(C)NS(=O)(=O)c1ccc(NC(=O)[C@@H]2C[C@@H](c3ccccc3)CN2C(=O)c2ccc(F)cc2)cc1 [Compound I-49, (2S,4S)—N-(4-(N-(tert-butyl)sulfamoyl)phenyl)-1-(4-fluorobenzoyl)-4-phenylpyrrolidine-2-carboxamide]
1 to 10 µM | CC(C)(C)NS(=O)(=O)c1ccc(NC(=O)[C@@H]2CCCN2C(=O)c2ccc(F)cc2)cc1 [Compound I-50, (S)—N-(4-(N-tert-butylsulfamoyl)phenyl)-1-(4-fluorobenzoyl)pyrrolidine-2-carboxamide]
1 to 10 µM | CC(C)(CO)NS(=O)(=O)c1ccc(NC(=O)[C@@H](NC(=O)c2ccc(F)cc2)C2CC2)cc1 [Compound I-52]
1 to 10 µM | CC(C)(CN1CCOCC1)NS(=O)(=O)c1ccc(NC(=O)[C@@H](NC(=O)c2ccc(F)cc2)C2CC2)cc1 [Compound I-53]
1 to 10 µM | O=C(N[C@H](C(=O)Nc1ccc(S(=O)(=O)NC2COC2)cc1)C1CC1)c1ccc(F)cc1 [Compound I-54, (S)—N-(1-cyclopropyl-2-((4-(N-(oxetan-3-yl)sulfamoyl)phenyl)amino)-2-oxoethyl)-4-fluorobenzamide]
1 to 10 µM | CC(C)(C)NC(=O)N1CCC(NC(=O)[C@H](Cc2ccccc2)NC(=O)c2ccc(F)cc2)CC1 [Compound I-57, (S)—N-(tert-butyl)-4-(2-(4-fluorobenzamido)-3-phenylpropanamido)piperidine-1-carboxamide]
1 to 10 µM | CC(C)(C)NS(=O)(=O)N1CCC(NC(=O)[C@H](Cc2ccccc2)NC(=O)c2ccc(F)cc2)CC1 [Compound I-58, (S)—N-(1-((1-(N-(tert-butyl)sulfamoyl)piperidin-4-yl)amino)-1-oxo-3-phenylpropan-2-yl)-4-fluorobenzamide]

same assay, conditions: […] recombinant USP30, 25 nM Ubiquitin-Rhodamine, fluorescence

IC50 | SMILES
< 0.05 µM | COc1cc(NC(=O)[C@H](CC2CCOCC2)NC(=O)c2ccc(F)cc2)ccc1S(=O)(=O)NC(C)(C)C [Compound I-2, (S)—N-(1-((4-(N-(tert-butyl)sulfamoyl)-3-methoxyphenyl)amino)-1-oxo-3-(tetrahydro-2H-pyran-4-yl)propan-2-yl)-4-fluorobenzamide]
< 0.05 µM | CC(C)(C)NS(=O)(=O)c1ccc(NC(=O)[C@H](CC2CCOCC2)NC(=O)c2ccc(F)cc2)cn1 [Compound I-4]
< 0.05 µM | CC(C)(CCO)NS(=O)(=O)c1ccc(NC(=O)[C@H](CC2CCOCC2)NC(=O)c2ccc(F)cc2)cc1 [Compound I-6]
< 0.05 µM | CC(C)(C)NS(=O)(=O)c1cccc2c(NC(=O)[C@H](CC3CCOCC3)NC(=O)c3ccc(F)cc3)cccc12 [Compound I-8, (S)—N-(1-((5-(N-(tert-butyl)sulfamoyl)naphthalen-1-yl)amino)-1-oxo-3-(tetrahydro-2H-pyran-4-yl)propan-2-yl)-4-fluorobenzamide]
> 10 µM | CC(C)C[C@@H](NC(=O)c1ccc(F)cc1)C(=O)Nc1ccc(S(=O)(=O)NC(C)(C)C)cc1 [Compound I-12]
< 0.05 µM | CC(C)C[C@H](NC(=O)c1ccc(F)cc1)C(=O)Nc1ccc(S(=O)(=O)NC(C)(C)C)nc1 [Compound I-16]
> 10 µM | CC(C)C[C@@H](NC(=O)c1ccc(F)cc1)C(=O)Nc1ccc(S(=O)(=O)NC(C)(C)CCO)cc1 [Compound I-21, (R)-4-fluoro-N-(1-((4-(N-(4-hydroxy-2-methylbutan-2-yl)sulfamoyl)phenyl)amino)-4-methyl-1-oxopentan-2-yl)benzamide]
> 10 µM | CC(C)(CN1CCOCC1)NS(=O)(=O)c1ccc(NC(=O)[C@H](CO)NC(=O)c2ccc(F)cc2)cc1 [Compound I-36, (S)-4-fluoro-N-(3-hydroxy-1-((4-(N-(2-methyl-1-morpholinopropan-2-yl)sulfamoyl)phenyl)amino)-1-oxopropan-2-yl)benzamide]
> 10 µM | CC(C)(C)NS(=O)(=O)c1ccc(NC(=O)[C@@H](CC2COC2)NC(=O)c2ccc(F)cc2)cc1 [Compound I-39, (R)—N-(1-((4-(N-(tert-butyl)sulfamoyl)phenyl)amino)-3-(oxetan-3-yl)-1-oxopropan-2-yl)-4-fluorobenzamide]
